# Assays:
# [1] = system: NIH/3T3 mouse embryonic fibroblast cell line; experiment: MTT cytotoxicity test; format: cell-based; settings: NIH3T3, cytotoxic activity, NIH/3T3 cell line
# Protocol: The main cause of failure in all stages of the new drug development process is toxicity. Early identification of toxicities of drug candidates is very important in terms of drug development studies. […] Cytotoxicity of selected compounds (3a–3d), displaying strong anticandidal activity and good predicted pharmacokinetics, was determined against NIH/3T3 mouse embryonic fibroblast cell lines (ATCC CRL1658).
# Cytotoxicity was tested using the NIH/3T3 mouse embryonic fibroblast cell line (ATCC® CRL-1658™, London, UK). NIH/3T3 cells were incubated according to the supplier’s recommendations. NIH/3T3 cells were seeded at 1 × 10^4 cells into each well of the 96-well plates. The MTT assay was performed as previously described. The compounds were tested between 800 and 0.78 µg/mL concentrations. Inhibition % was calculated for each concentration according to the formula below, and IC50 values were determined by plotting a dose–response curve of inhibition % versus compound concentrations tested.
# % inhibition = 100 − (mean sample × 100/mean solvent).
# C. krusei (ATCC 6258) = experiment: Anticandidal activity, EUCAST EDef 7.1 broth dilution with resazurin; format: cell-based; settings: Pichia kudriavzevii, ATCC6258, RPMI pH 7, 24 h
# Protocol: (§1) Synthesized compounds (3a–3o) were evaluated for anticandidal activity against C. albicans (ATCC 24433), C. krusei (ATCC 6258), C. parapsilosis (ATCC 22019), and C. glabrata (ATCC 90030). MIC50 values were determined via fluorometric measurements, using resazurin solution [24, 25]. Ketoconazole and fluconazole were used as a standard drug in the activity test.
# (§2) Microbiological studies were performed according to the EUCAST definitive (EDef 7.1) method for C. albicans (ATCC 24433), C. krusei (ATCC 6258), C. parapsilosis (ATCC 22019), and C. glabrata (ATCC 90030). Fluconazole and ketoconazole were used as control drugs. Two MIC readings were carried out for each chemical agent. The yeasts were maintained in RPMI after overnight incubation at 37 °C. The inocula of test microorganisms was adjusted to match the turbidity of a MacFarland 0.5 standard tube as determined with a spectrophotometer, and the final inoculum size was 0.5–2.5 × 10^5 cfu/mL for the antifungal assay. Testing was carried out in RPMI at pH = 7, and the two-fold serial dilutions technique was applied. The last well on the microplates containing only inoculated broth was kept as a control, and the last well with no growth of microorganism was recorded to represent the MIC50 expressed in μg/mL. For the antifungal assays, the compounds were dissolved in DMSO. Further dilutions of the compounds and standard drugs in the test medium were prepared at the required quantities of 800, 400, 200, 100, 50, 25, 12.5, 6.25, 3.125, 1.5625, and 0.78 μg/mL concentrations RPMI. The completed plates were incubated for 24 h. At the end of the incubation, resazurin (20 µg/mL) was added into each well to control the growth in the wells. Completed plates were incubated for 2 h. MIC50 values were determined using a microplate reader at […].
# [2] = system: C. parapsilosis (ATCC 22019); experiment: as above; format: cell-based; settings: Lodderomyces parapsilosis, ATCC22019, RPMI pH 7, 24 h
# Protocol: as §1, §2
# C. albicans (ATCC 24433) = experiment: as above; format: cell-based; settings: Candida albicans, ATCC24433, RPMI pH 7, 24 h
# Protocol: as §1, §2
# C. glabrata (ATCC 90030) = experiment: as above; format: cell-based; settings: Nakaseomyces glabratus, ATCC90030, RPMI pH 7, 24 h
# Protocol: as §1, §2
# [3] = system: ergosterol biosynthesis in C. krusei; experiment: Quantification of ergosterol level by LC-MS-MS; format: cell-based; settings: Pichia kudriavzevii, mean ± SD, quadruplicate
# Excerpt: Sterols are neutral lipids of eukaryotic cells, among which ergosterol is the main constituent of fungal membranes. Ergosterol has biological functions such as membrane fluidity, regulation, activity and distribution of integral membrane proteins, and control of the cell cycle. The critical role of sterols in maintenance of cell membranes make ergosterol and its biosynthetic pathway essential for fungal growth, and a primary target for antifungal drugs to treat fungal infections. From this point of view, we performed an LCMSMS (Shimadzu LCMS 8040, Kyoto, Japan) method for quantitative determination of ergosterol content of C. krusei as reported in our recent study. Compounds 3a–3d, displaying the best anticandidal activity and low cytotoxic effect, and reference agents ketoconazole and fluconazole were tested at concentrations of 0.78–3.12 µg/mL. Ergosterol standard (Product No.: 45480, Sigma-Aldrich, Darmstadt, Germany) was used for the quantification of ergostrerol in samples, which were treated with reference agents and Compounds 3a–3d. Ergosterol quantity of the negative control was considered as 100%. Quadruplicate analyses were performed for all concentrations and the obtained data were expressed as mean ± standard deviation (SD) (Table 2).
# Extraction of total sterols from C. krusei was performed as recorded by Breivik and Owades. Quantification of ergosterol level in this extract was carried out in accordance with our recently described method.
Compound,IC50 [1] [µg/mL],MIC50 (C. krusei (ATCC 6258)) [µg/mL],MIC50 [2] [µg/mL],MIC50 (C. albicans (ATCC 24433)) [µg/mL],MIC50 (C. glabrata (ATCC 90030)) [µg/mL],inhibition at 0.78 µg/mL [3] [%],inhibition at 1.56 µg/mL [3] [%],inhibition at 3.12 µg/mL [3] [%],melting point [°C]
"Cc1ccc(Oc2ccc(C=CC(=O)c3ccc(-n4ccnc4)cc3)cc2)cc1 [Compound 3a, 1-(4-(1H-Imidazol-1-yl)phenyl)-3-(4-(p-tolyloxy)phenyl)prop-2-en-1-one]",> 500,0.78,0.78,3.12,3.12,66.2 ± 2.23,79.5 ± 3.16,86.5 ± 4.77,146 to 148
"Cc1ccc(Sc2ccc(C=CC(=O)c3ccc(-n4ccnc4)cc3)cc2)cc1 [Compound 3b, 1-(4-(1H-Imidazol-1-yl)phenyl)-3-(4-(p-tolylthio)phenyl)prop-2-en-1-one]",> 500,0.78,0.78,3.12,3.12,68.6 ± 1.98,81.6 ± 4.07,83.5 ± 3.18,168 to 169
"COc1ccc(Oc2ccc(C=CC(=O)c3ccc(-n4ccnc4)cc3)cc2)cc1 [Compound 3c, 1-(4-(1H-Imidazol-1-yl)phenyl)-3-(4-(4-methoxyphenoxy)phenyl)prop-2-en-1-one]",436 ± 1.03,0.78,0.78,1.56,0.78,71.1 ± 4.9,78.2 ± 2.7,84.3 ± 4.65,168 to 170
"COc1ccc(Sc2ccc(C=CC(=O)c3ccc(-n4ccnc4)cc3)cc2)cc1 [Compound 3d, 1-(4-(1H-Imidazol-1-yl)phenyl)-3-(4-((4-methoxyphenyl)thio)phenyl)prop-2-en-1-one]",388 ± 20.2,1.56,3.12,1.56,0.78,52.5 ± 1.83,67.1 ± 2.7,74.1 ± 2.21,177 to 179
"O=C(C=Cc1ccc(N2CCCC2)cc1)c1ccc(-n2ccnc2)cc1 [Compound 3e, 1-(4-(1H-Imidazol-1-yl)phenyl)-3-(4-(pyrrolidin-1-yl)phenyl)prop-2-en-1-one]",,12.5,12.5,50,12.5,,,,186 to 188
"O=C(C=Cc1ccc(N2CCOCC2)cc1)c1ccc(-n2ccnc2)cc1 [Compound 3f, 1-(4-(1H-Imidazol-1-yl)phenyl)-3-(4-morpholinophenyl)prop-2-en-1-one]",,12.5,12.5,50,12.5,,,,214 to 215
"O=C(C=Cc1ccc(N2CCCCC2)cc1)c1ccc(-n2ccnc2)cc1 [Compound 3g, 1-(4-(1H-Imidazol-1-yl)phenyl)-3-(4-(piperidin-1-yl)phenyl)prop-2-en-1-one]",,25,12.5,50,12.5,,,,198 to 199
"CC1CCCN(c2ccc(C=CC(=O)c3ccc(-n4ccnc4)cc3)cc2)C1 (stereo not drawn) [Compound 3h, 1-(4-(1H-Imidazol-1-yl)phenyl)-3-(4-(3-methylpiperidin-1-yl)phenyl)prop-2-en-1-one]",,25,12.5,50,12.5,,,,163 to 165
"CC1CCN(c2ccc(C=CC(=O)c3ccc(-n4ccnc4)cc3)cc2)CC1 [Compound 3i, 1-(4-(1H-Imidazol-1-yl)phenyl)-3-(4-(4-methylpiperidin-1-yl)phenyl)prop-2-en-1-one]",,12.5,12.5,50,12.5,,,,189 to 191
"CC1CC(C)CN(c2ccc(C=CC(=O)c3ccc(-n4ccnc4)cc3)cc2)C1 (stereo not drawn) [Compound 3j, 1-(4-(1H-Imidazol-1-yl)phenyl)-3-(4-(3,5-dimethylpiperidin-1-yl)phenyl)prop-2-en-1-one]",,25,25,50,12.5,,,,160 to 161
"O=C(C=Cc1ccc(N2CCC(Cc3ccccc3)CC2)cc1)c1ccc(-n2ccnc2)cc1 [Compound 3k, 1-(4-(1H-Imidazol-1-yl)phenyl)-3-(4-(4-benzylpiperidin-1-yl)phenyl)prop-2-en-1-one]",,25,12.5,50,25,,,,178 to 180
"CN1CCN(c2ccc(C=CC(=O)c3ccc(-n4ccnc4)cc3)cc2)CC1 [Compound 3l, 1-(4-(1H-Imidazol-1-yl)phenyl)-3-(4-(4-methylpiperazin-1-yl)phenyl)prop-2-en-1-one]",,25,12.5,50,12.5,,,,205 to 207
"CCN1CCN(c2ccc(C=CC(=O)c3ccc(-n4ccnc4)cc3)cc2)CC1 [Compound 3m, 1-(4-(1H-Imidazol-1-yl)phenyl)-3-(4-(4-ethylpiperazin-1-yl)phenyl)prop-2-en-1-one]",,12.5,25,50,12.5,,,,188 to 189
"CN(C)CCN1CCN(c2ccc(C=CC(=O)c3ccc(-n4ccnc4)cc3)cc2)CC1 [Compound 3n, 1-(4-(1H-Imidazol-1-yl)phenyl)-3-(4-(4-(2-(dimethylamino)ethyl)piperazin-1-yl)phenyl)prop-2-en-1-one]",,12.5,12.5,50,12.5,,,,146 to 149
"CN(C)CCCN1CCN(c2ccc(C=CC(=O)c3ccc(-n4ccnc4)cc3)cc2)CC1 [Compound 3o, 1-(4-(1H-Imidazol-1-yl)phenyl)-3-(4-(4-(3-(dimethylamino)propyl)piperazin-1-yl)phenyl)prop-2-en-1-one]",,12.5,12.5,50,12.5,,,,138 to 141
"OC(Cn1cncn1)(Cn1cncn1)c1ccc(F)cc1F [Fluconazole, reference compound]",,1.56,0.78,0.78,1.56,61.7 ± 1.7,70.1 ± 3.22,82.1 ± 4.45,
"CC(=O)N1CCN(c2ccc(OCC3COC(Cn4ccnc4)(c4ccc(Cl)cc4Cl)O3)cc2)CC1 (stereo not drawn) [Ketoconazole, reference compound]",,1.56,1.56,0.78,1.56,61 ± 2.94,73.1 ± 4.16,84.6 ± 3.01,

# — paper PMC6017838, “Synthesis and Anticandidal Activity of New Imidazole-Chalcones” (Molecules : A Journal of Synthetic Chemistry and Natural …, 2018)
